Measurements as given in the supplement of paper PMC11061612.

Columns and labels:
Test in all cases: Bliss excess, mean over the matrix (fraction); higher = more synergy
[1] = tested on: NCI-H3118 (Head and Neck Carcinoma)
Procedure, shortened: (§1)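 Bliss excess equals the observed combination effect minus the expected value EA + EB − EA·EB, where EA and EB are the effects of each agent alone. Combination Emax is the second-highest inhibition within the matrix. Inhibition was scaled from CellTiter-Glo 2.0 luminescence, with 0 set by vehicle wells and 1 by blank wells, after 72 hours of two-drug dosing of cells plated in 1536-well plates.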

[2] = tested on: T47D (Breast Carcinoma)
Procedure, shortened: as §1

[3] = tested on: AM-38 (Glioblastoma)
Procedure, shortened: as §1

[4] = tested on: BHT-101 (Thyroid Gland Carcinoma)
Procedure, shortened: as §1

[5] = tested on: T84 (Colorectal Carcinoma)
Procedure, shortened: as §1

[6] = tested on: BxPC-3 (Pancreatic Carcinoma)
Procedure, shortened: as §1

[7] = tested on: MONO-MAC-6 (Acute Myeloid Leukemia)
Procedure, shortened: as §1

[8] = tested on: NCI-H226 (Mesothelioma)
Procedure, shortened: as §1

[9] = tested on: OVCAR-3 (Ovarian Carcinoma)
Procedure, shortened: as §1

[10] = tested on: PA-TU-8988T (Pancreatic Carcinoma)
Procedure, shortened: as §1

[11] = tested on: CL-11 (Colorectal Carcinoma)
Procedure, shortened: as §1

[12] = tested on: MDA-MB-415 (Breast Carcinoma)
Procedure, shortened: as §1

[13] = tested on: WM35 (Melanoma)
Procedure, shortened: as §1

[14] = tested on: P30-OHK (B-Lymphoblastic Leukemia)
Procedure, shortened: as §1

[15] = tested on: P32-ISH (Burkitt's Lymphoma)
Procedure, shortened: as §1

[16] = tested on: NCI-H1876 (Small Cell Lung Carcinoma)
Procedure, shortened: as §1

[17] = tested on: NCI-H2373 (Mesothelioma)
Procedure, shortened: as §1

[18] = tested on: TUR (Acute Myeloid Leukemia)
Procedure, shortened: as §1

[19] = tested on: NCI-H596 (Other Solid Carcinomas)
Procedure, shortened: as §1

[20] = tested on: ZR-75-30 (Breast Carcinoma)
Procedure, shortened: as §1

SMILES | Bliss excess [1] | Bliss excess [2] | Bliss excess [3] | Bliss excess [4] | Bliss excess [5] | Bliss excess [6] | Bliss excess [7] | Bliss excess [8] | Bliss excess [9] | Bliss excess [10] | Bliss excess [11] | Bliss excess [12] | Bliss excess [13] | Bliss excess [14] | Bliss excess [15] | Bliss excess [16] | Bliss excess [17] | Bliss excess [18] | Bliss excess [19] | Bliss excess [20]
NC1(C(=O)N[C@@H](CCO)c2ccc(Cl)cc2)CCN(c2ncnc3[nH]ccc23)CC1 [Capivasertib] + CC(C)n1c(=O)n(C)c2cnc3cc(F)c(-c4ccc(OCCCN5CCCCC5)nc4)cc3c21 [AZD1390] (first compound max 10 µM, 7x7, partner max 0.3 µM) | -0.0572 | -0.0476 | -0.064 | -0.0197 | -0.0417 | -0.0361 | -0.0262 | -0.0484 | -0.0438 | -0.0434 | -0.0287 | -0.0297 | -0.0773 | -0.0289 | 0.0131 | -0.0805 | -0.051 | -0.0704 | -0.143 | -0.0471
COc1nnc2ccc(N3CCC(c4ccc(OCCN5CCN(C)C(=O)[C@H]5C)cc4)CC3)nn12 [AZD5153] + Cn1cnc2c(F)c(Nc3ccc(Br)cc3Cl)c(C(=O)NOCCO)cc21 [Selumetinib] (first compound max 1 µM, 7x7, partner max 10 µM) | -0.0164 | 0.0101 | -0.0064 | -0.0593 | -0.0588 | -0.0864 | -0.008 | -0.045 | -0.0489 | 0.0423 | 0.0425 | 0.0512 | 0.0702 | -0.0004 | -0.0417 | -0.0499 | -0.0666 | -0.0567 | -0.0344 | -0.0133
CN(CCO)CC[C@H](CSc1ccccc1)Nc1ccc(S(=O)(=O)NC(=O)c2ccc(N3CCC([C@@H](O)c4ccccc4-c4ccc(Cl)cc4)CC3)cc2)cc1S(=O)(=O)C(F)(F)F [AZD4320] + Cc1cc2ncnn2cc1Nc1ncc2c(n1)n(C1CCOCC1)c(=O)n2C [AZD7648] (first compound max 1 µM, 7x7, partner max 10 µM) | -0.0392 | -0.0255 | -0.003 | -0.0361 | -0.0314 | -0.024 | 0.0106 | -0.0674 | -0.0521 | -0.043 | -0.033 | -0.0243 | -0.0122 | 0.0216 | 0.0076 | 0.0162 | -0.0389 | 0.0088 | -0.0422 | -0.0359
COc1cccc(OCCCN)c1-c1cc(Nc2cnc(C#N)cn2)n[nH]1 [Prexasertib] + CCc1c2c(nc3ccc(O)cc13)-c1cc3c(c(=O)n1C2)COC(=O)[C@]3(O)CC [SN-38] (first compound max 1 µM, 7x7, partner max 0.3 µM) | 0.0162 | -0.0399 | -0.0317 | 0.0077 | 0.0636 | 0.0111 | 0.0092 | -0.058 | 0.141 | 0.167 | 0.0172 | 0.106 | -0.0582 | -0.0164 | -0.0201 | 0.0067 | 0.0224 | 0.0107 | 0.0625 | -0.0408
Cc1c2c(nn1C)CSCc1cc(n(C)n1)CSc1cc(c3ccccc3c1)OCCCc1c(C(=O)O)n(C)c3c-2c(Cl)ccc13 [AZD5991] + C1CN(CCC1(C(=O)N[C@@H](CCO)C2=CC=C(C=C2)Cl)N)C3=NC=NC4=C3C=CN4 [Capivasertib] (first compound max 1 µM, 7x7, partner max 3 µM) | 0.0263 | -0.0887 | 0.0026 | 0.0332 | -0.0185 | -0.0005 | 0.0378 | -0.0473 | 0.0217 | -0.01 | -0.0234 | 0.0144 | -0.0183 | 0.0273 | 0.0276 | 0.0708 | -0.0671 | 0.0937 | -0.0035 | -0.0119
NC1(C(=O)N[C@@H](CCO)c2ccc(Cl)cc2)CCN(c2ncnc3[nH]ccc23)CC1 [Capivasertib] + C[C@@H]1COCCN1C2=NC(=NC(=C2)C3(CC3)[S@](=N)(=O)C)C4=C5C=CNC5=NC=C4 [AZD6738] (first compound max 10 µM, 7x7, partner max 10 µM) | -0.0807 | -0.0095 | -0.0121 | -0.0345 | -0.111 | -0.0076 | -0.0397 | -0.0775 | -0.0169 | -0.0372 | -0.0376 | -0.0516 | -0.02 | 0.0468 | 0.0277 | 0.0649 | -0.0301 | -0.0398 | -0.0105 | -0.057
